Molecular target: Cyclic GMP-AMP synthase (Mus musculus, UniProt Q8C6L5)
Assay: Inhibition of mouse cGAS by ATP consumption assay

Cyclic GMP-AMP synthase, sequence (Q8C6L5 whole entry): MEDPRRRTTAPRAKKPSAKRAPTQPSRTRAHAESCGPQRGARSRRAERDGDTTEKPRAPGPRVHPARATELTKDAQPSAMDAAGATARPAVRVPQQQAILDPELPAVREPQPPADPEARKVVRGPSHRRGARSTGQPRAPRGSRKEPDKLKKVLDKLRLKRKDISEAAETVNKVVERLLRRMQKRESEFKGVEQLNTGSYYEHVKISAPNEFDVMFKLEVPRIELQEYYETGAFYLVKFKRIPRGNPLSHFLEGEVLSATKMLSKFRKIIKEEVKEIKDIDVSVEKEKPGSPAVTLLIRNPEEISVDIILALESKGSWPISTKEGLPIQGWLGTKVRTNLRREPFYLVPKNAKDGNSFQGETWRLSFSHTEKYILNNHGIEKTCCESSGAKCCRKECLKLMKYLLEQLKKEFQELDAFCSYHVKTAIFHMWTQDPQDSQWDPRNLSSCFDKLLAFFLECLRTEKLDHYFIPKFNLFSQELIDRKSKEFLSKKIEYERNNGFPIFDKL

- IC50: 270 nM
Structure (SMILES): CCn1nc(C)cc1C(=O)Nc1nc2cc(C(N)=O)cc(OC)c2n1C/C=C/Cn1c(NC(=O)c2cc(C)nn2CC)nc2cc(C(N)=O)cc(OCCCN3CCOCC3)c21
